Laboratory results: patent US5290948A, “Process for producing polyhydroxylated piperidines and pyrrolidines and compounds thereof” (McNeilab, Inc., priority 1990, dated 1994)
Where a name gives a salt, the structure may show the parent alone.

How the values were obtained:
[1] = system: HIV-1; experiment: Anti-HIV-1 activity in MT-4 cells; assay type: cell-based; details: for HIV1/HIV2 Act. (HIV1): Table 1, MT-4 cells, viable cells after five days; for inhibited the growth of HIV-1: at high concentrations
Procedure: Anti-HIV-1 activity was tested in MT-4 cells as described previously (Pauwels et al. J. Virol Methods 1987, 11, 171). The cells were either infected with HIV-1 or mock infected and incubated in the presence of the test compounds. The number of viable cells was then determined after five days (Pauwels et al. J. Virol Methods 1988, 20, 309).

[2] = system: glycosidase; experiment: Glycosidase inhibition, overall statement; assay type: biochemical
Procedure: Compounds 6, 11 and 12 in Table 1 were screened at a single dose (100 micromolar) against sucrase and maltase, two glycosidase enzymes. In addition compounds 1 and 2 were screened at a dose of 1 mM. These compounds are described in Examples 6, 81 10, 11 and 12. […] Compounds 1, 2, 6 and 12 are novel compounds having glucitol stereochemistry. Compound 11 is likewise novel and it has the iditol stereochemistry.
(§1) The inhibition of maltase (sucrase) tests was carried out as recited hereinafter. Partially purified α-glycosidase was isolated from the rabbit's small intestine as described in the literature (B. L. Rhinehart et al. Life Sci. 1987, 41, 2325). The α-glycosidase activity was measured using […] as substrates. β-Glycosidase from almonds was obtained from Sigma (St. Louis), and β-glycosidase activity was measured using lactose as a substrate. The incubation mixture (200 μL) consisted of substrate (100 mM), enzyme, 100 mM NaCl, 0.1 mM Na2 EDTA and either 10 mM MOPS (for pH 7), 10 mM maleic acid (for pH 6), or 10 Mm acetate (for pH 5) as buffer (adjusted to their respective pH with NaOH). Compounds dissolved in dimethylsulfoxide were added (final concentration of dimethylsulfoxide in the assay was 1%). The assay was performed at 37 deg C. for 30 minutes and arrested by incubation for 3 min at 85 deg C. After centrifugation for 2 min at 10,000 g, the supernatant was collected and processed for glucose determination. Glucose was measured with the hexokinase method (kit obtained from Boehringer Mannheim) on an EPOS 5060 EPPENDORF autoanalyser.

[3] = system: β-Glycosidase; experiment: Inhibition of lactose activity (β-glycosidase); assay type: biochemical, almonds
Procedure: as §1

[4] = system: Maltase; experiment: Inhibition of maltase (α-glycosidase, maltose-cleaving activity); assay type: biochemical, rabbit; details: for Inh. of Maltase: at 100 µM (Table 1 head)
Procedure: […] In addition compounds 1 and 2 were screened at a dose of 1 mM. These compounds are described in Examples 6, 81 10, 11 and 12. […] Compounds 1, 2, 6 and 12 are novel compounds having glucitol stereochemistry. Compound 11 is likewise novel and it has the iditol stereochemistry.
as §1

[5] = molecular target: T1, Sucrase (Oryctolagus cuniculus, UniProt P07768); experiment: Inhibition of sucrase (α-glycosidase); assay type: biochemical, rabbit; details: at 100 mM (Table 1 head)
T1 construct: Partially purified α-glycosidase was isolated from the rabbit's small intestine; from tissue; host or cells: rabbit small intestine, partially purified
T1 sequence (P07768 1008-1827 limits assumed): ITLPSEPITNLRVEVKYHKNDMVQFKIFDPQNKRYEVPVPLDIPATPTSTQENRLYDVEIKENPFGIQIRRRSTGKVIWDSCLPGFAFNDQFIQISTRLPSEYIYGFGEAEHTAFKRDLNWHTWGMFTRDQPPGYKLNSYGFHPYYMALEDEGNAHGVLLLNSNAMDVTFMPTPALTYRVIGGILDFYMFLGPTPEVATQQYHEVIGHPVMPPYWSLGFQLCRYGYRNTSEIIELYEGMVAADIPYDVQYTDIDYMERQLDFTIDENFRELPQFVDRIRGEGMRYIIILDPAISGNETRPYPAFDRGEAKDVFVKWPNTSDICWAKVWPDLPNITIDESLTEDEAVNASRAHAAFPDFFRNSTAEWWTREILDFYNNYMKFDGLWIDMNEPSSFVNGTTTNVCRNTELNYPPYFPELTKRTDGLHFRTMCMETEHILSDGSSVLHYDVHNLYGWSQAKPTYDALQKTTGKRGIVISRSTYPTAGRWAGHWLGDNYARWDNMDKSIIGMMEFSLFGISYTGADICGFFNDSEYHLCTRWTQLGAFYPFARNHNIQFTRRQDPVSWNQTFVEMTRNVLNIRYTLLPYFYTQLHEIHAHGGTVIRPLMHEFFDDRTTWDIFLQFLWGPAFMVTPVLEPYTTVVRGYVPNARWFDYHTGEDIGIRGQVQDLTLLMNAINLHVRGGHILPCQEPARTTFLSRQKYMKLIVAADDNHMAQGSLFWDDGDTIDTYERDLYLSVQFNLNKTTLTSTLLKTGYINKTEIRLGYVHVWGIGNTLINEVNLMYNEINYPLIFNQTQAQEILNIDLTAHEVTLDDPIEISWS
T1 sequence (P07768 2-1007 partner limits assumed): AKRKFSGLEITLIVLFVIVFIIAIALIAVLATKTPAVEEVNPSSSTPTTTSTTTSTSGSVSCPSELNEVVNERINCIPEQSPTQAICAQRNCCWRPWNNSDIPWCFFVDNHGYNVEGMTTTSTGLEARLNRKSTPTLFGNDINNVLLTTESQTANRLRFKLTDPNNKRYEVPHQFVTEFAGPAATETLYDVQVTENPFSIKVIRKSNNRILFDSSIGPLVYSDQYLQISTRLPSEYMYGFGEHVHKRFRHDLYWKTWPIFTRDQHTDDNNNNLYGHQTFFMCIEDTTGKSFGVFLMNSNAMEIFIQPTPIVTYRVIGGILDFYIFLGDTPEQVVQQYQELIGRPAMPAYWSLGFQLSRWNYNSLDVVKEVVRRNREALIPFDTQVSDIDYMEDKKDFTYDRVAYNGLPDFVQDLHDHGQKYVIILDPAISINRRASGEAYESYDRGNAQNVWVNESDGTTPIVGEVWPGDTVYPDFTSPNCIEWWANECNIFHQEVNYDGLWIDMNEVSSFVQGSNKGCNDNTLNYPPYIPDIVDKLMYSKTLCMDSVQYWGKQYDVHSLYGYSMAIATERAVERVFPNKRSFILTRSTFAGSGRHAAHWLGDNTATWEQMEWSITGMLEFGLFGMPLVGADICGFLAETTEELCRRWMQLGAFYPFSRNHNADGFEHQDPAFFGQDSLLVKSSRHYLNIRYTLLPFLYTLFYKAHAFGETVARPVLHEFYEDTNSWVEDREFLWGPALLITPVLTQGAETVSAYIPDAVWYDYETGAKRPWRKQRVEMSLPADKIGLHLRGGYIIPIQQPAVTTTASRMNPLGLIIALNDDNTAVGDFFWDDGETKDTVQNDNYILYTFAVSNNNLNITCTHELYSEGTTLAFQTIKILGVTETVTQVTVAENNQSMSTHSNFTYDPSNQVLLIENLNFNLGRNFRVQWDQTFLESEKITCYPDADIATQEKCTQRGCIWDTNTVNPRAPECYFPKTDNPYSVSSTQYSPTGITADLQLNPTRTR
Procedure: […] In addition compounds 1 and 2 were screened at a dose of 1 mM. These compounds are described in Examples 6, 81 10, 11 and 12.
as §1

[6] = system: HIV2; experiment: Anti-HIV-2 activity; assay type: cell-based; details: Table 1

| Molecule | HIV1/HIV2 Act. (HIV1) [1] | glycosidase inhibition (in words) [2] | Inh. of Maltase [4] | further results |
| --- | --- | --- | --- | --- |
| OC[C@@H]1[C@@H](O)[C@H](O)[C@H](CO)N1C(c1ccccc1)c1ccccc1 [Compound 1] | Weak anti-HIV1 act. | glycosidase inhibitors | 0% | inhibited the growth of HIV-1 [1]: inhibited the growth of HIV-1 at high concentrations; inhibition of lactose activity ([3]; at 10^-4 M, pH 5 (footnote 1)): 58%; inhibition of maltase ([4]; at 10^-3 M (footnote 1)): 40% |
| OC[C@@H]1N[C@H](CO)[C@@H](O)[C@@H]1O [Compound 2, 2,5-Anhydro-2,5-imino-D-glucitol] | No anti-HIV1 act. | glycosidase inhibitors | 0% | inhibition of lactose activity ([3]; at 10^-3 M, pH 5 (footnote 2)): 44% |
| OC[C@@H]1[C@@H](O)[C@H](O)[C@@H](CO)N1C(c1ccccc1)c1ccccc1 [Compound 3, N-Benzhydryl-2,5-anhydro-2,5-imino-D-mannitol] | No anti-HIV1 act. | – | 0% | – |
| OCC1[C@@H](O)[C@H](O)C(CO)N1CCCOc1ccc(F)cc1 (some centres unmarked) [Compound 8] | No anti-HIV1 act. | – | 0% | – |
| OC[C@@H]1[C@@H](O)[C@H](O)[C@H](CO)N1c1ccc(F)cc1 [Compound 9, N-(4-Fluorophenyl)-2,5-anhydro-2,5-imino-D-glucitol] | No anti-HIV1 act. | – | 0% | – |
| OC[C@@H]1[C@@H](O)[C@H](O)[C@@H](CO)N1c1ccc(F)cc1 [Compound 10] | No anti-HIV1 act. | – | 0% | – |
| OC[C@H]1[C@@H](O)[C@H](O)[C@H](CO)N1c1ccc(F)cc1 [Compound 11] | No anti-HIV1 act. | glycosidase inhibitors | 19% | – |
| OC[C@@H]1[C@@H](O)[C@H](O)[C@H](CO)N1CCCC(c1ccc(F)cc1)c1ccc(F)cc1 [Compound 12, N-[4,4-bis(4-Fluorophenyl)butyl]-2,5-anhydro-2,5-imino-D-glucitol tosylate] | Weak anti-HIV1 act. | glycosidase inhibitors | 20% | inhibited the growth of HIV-1 [1]: inhibited the growth of HIV-1 at high concentrations |
| CCOC(=O)N1CCC(N2C(CO)[C@@H](O)[C@H](O)C2CO)CC1 (some centres unmarked) [Compound 13] | No anti-HIV1 act. | – | 0% | – |
| OCCCN1C(CO)[C@@H](O)[C@H](O)C1CO (some centres unmarked) [Compound 15] | – | – | 0% | – |
| CCCCN1[C@H](CO)[C@@H](O)[C@H](O)[C@@H]1CO [Compound 16] | – | – | 0% | – |
| OCC1[C@@H](O)[C@H](O)C(CO)N1CCc1ccc(F)cc1 (some centres unmarked) [Compound 17] | No anti-HIV1 act. | – | – | – |
| COC1CN(CCCOc2ccc(F)cc2)CCC1N1C(CO)[C@@H](O)[C@H](O)[C@H]1CO (some centres unmarked) [Compound 22] | No anti-HIV1 act. | – | 0% | – |
| N-Stearyl-2,5-anhydro-2,5-imino-D-glucitol [Compound 6] | Weak anti-HIV1 and HIV2 | glycosidase inhibitors | 1% | inhibited the growth of HIV-1 [1]: inhibited the growth of HIV-1 at high concentrations; Inh. of (Sucrase) [5]: 6%; HIV1/HIV2 Act. (HIV2) [6]: Weak anti-HIV1 and HIV2 |
